In paper PMC9126943, “ADAMTS4-specific MR probe to assess aortic aneurysms in vivo using synthetic peptide libraries” (Nature Communications, 2022) one finds Kd and solubility data, which are given here for one molecule.

The term pKd denotes the negative decadic logarithm of the Kd, by convention in mol/L.

Molecules are shown by their SMILES. pKd: −log10 of the molar value. Where a SMILES comes first, the peptide text is derived from it. Bridges are numbered along the chain shown (N, C = ends). The star is where a group is joined. DOTA = O=C(O)CN1CCN(CC(=O)O)CCN(CC(=O)*)CCN(CC(=O)O)CC1

The target of series [1] is T1, ADAMTS4 (Homo sapiens, UniProt O75173).
T1 construct: This is consistent with the recombinant proteins, we used in the screening process; purchased BioTeZ Berlin-Buch GmbH 30 400 102
T1 sequence (O75173 213-685): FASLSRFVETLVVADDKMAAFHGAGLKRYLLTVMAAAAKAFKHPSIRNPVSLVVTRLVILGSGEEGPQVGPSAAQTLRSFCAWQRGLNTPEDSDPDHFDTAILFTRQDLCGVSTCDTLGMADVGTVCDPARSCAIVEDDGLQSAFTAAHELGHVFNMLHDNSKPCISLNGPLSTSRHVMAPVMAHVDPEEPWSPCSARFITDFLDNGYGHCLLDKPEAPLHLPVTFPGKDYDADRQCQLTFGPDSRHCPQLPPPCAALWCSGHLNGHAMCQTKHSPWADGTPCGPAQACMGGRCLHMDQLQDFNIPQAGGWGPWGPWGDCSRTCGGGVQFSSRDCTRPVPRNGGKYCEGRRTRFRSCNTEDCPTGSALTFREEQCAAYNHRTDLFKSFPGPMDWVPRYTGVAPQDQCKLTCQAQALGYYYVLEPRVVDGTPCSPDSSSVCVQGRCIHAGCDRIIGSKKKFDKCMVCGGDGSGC
Kind of series: MST of earlier manuscript version (RED-tris-NTA labeled protein). As to conditions: earlier manuscript version quoted in peer review file; RED-tris-NTA labeled ADAMTS4, FAM-5 labeled peptides; read-out: binding constant (KD). The source says:
on the beads. Additionally, we could not find any traces of proteins in the MALDI-TOF-MS […]
We identified one candidate as the most promising binding peptide for ADAMTS4 with the sequence Ser- Cys*-Gly-Arg-Arg-Ser-Cys* (Supp. Fig. 1b, c).
5. “The representation of SPR data needs to be adjusted, additional experimental details have to be added to the Supplemental figures. Please, see the comments in Supplemental for details.” We apologize to the reviewer for this oversight. All data are now added to the supplemental material. SPR was only use for classification to determine whether the peptides represent potential […]
Page 8: For the resulting ADAMTS4- specific probe, we measured a binding constant of 38 nM […]
6. […] The data quality if […]
unfortunately too poor (the amplitude too low; minimal recommended amplitude is 3). Also, why were the FAM-5 labeled peptides used in the combination with the RED-tris-NTA labeled protein? […]
Additionally, we measured the same probe against ADAMTS1 and ADAMTS5 in the same concentration range, and we could not detect binding in this range (Supp. Fig. 2a). […]
R = Ranti−His−Ab ∗ MADAMTS4 ∗ Valencyanti−His−Ab we calculated a Rmax of 5524 µRIU. […]
Before and after the run, a blank was measured. […]
19. […] Using the fluorescence of the labeled […]
We added the sensogram and calculated the protein capture (please refer to question 16).

A short description of series [2]: Solubility (statement, no method). In kind it is physicochemical. As to conditions: statement in the discussion.

On to `N=C(N)NCCC[C@@H]1NC(=O)[C@H](CCCNC(=N)N)NC(=O)[C@H](CO)NC(=O)[C@@H](N)CSSC[C@@H](C(=O)N[C@@H](CO)C(=O)NCC(=O)NCC(=O)N[C@@H](CO)C(=O)NCC(=O)NCC(=O)N[C@@H](CCCCNC(=O)CN2CCN(CC(=O)O)CCN(CC(=O)O)CCN(CC(=O)O)CC2)C(=O)NCC(N)=O)NC(=O)CNC1=O` (Gd complex, metal not drawn) [ADAMTS4-specific probe] (H-CSRRGCSGGSGGK(DOTA)G-NH2; disulfide 1-6), for which, in series [1], the pKd was 7.42. Besides, the solubility result in series [2] is recorded as “high solubility”.
